Counter-ions that a name gives are not always drawn.

For data set [1] the following is noted: male, Han Wistar, rat, in vivo, po, 4 h. Here is the method: (§1) Plasma was placed on water-ice following collection. Final storage at approximately −70° C.
Mass spectrometer (UPCLC-MS/MS) Waters Acquity I-Class-Waters Xevo TQ-S. Analytical column Acquity HSS T3 C18 50×2.1 mm, 1.8 μm. Mobile phase A: 10 mM NH4-Formate 0.2% formic acid:Acetonitril (95:5). Mobile phase B: 10 mM NH4-Formate 0.2% formic acid:Acetonitril (5:95). Gradient run from 95/5% to 5/95% in 2.40 min. Flow rate 0.3 mL/min. MRM detection of test items and the added analytical standards
The rats had unrestricted access to the diet. Male Han Wistar rats were administered a single dose of apomorphine either subcutaneously or orally by gavage, or administered a single dose of apormorphine conjugates orally by gavage.

Another data set has as its target human D1 receptor (Homo sapiens (Human), UniProt P21728). The data set is described as follows: Dopamine D1 receptor agonism, HTRF cAMP assay. Format: cell-based. Conditions: normalized to 30 uM dopamine = 100%. Here is the method: Dopamine D1 receptor agonism was measured using a HTRF cAMP from CisBio using the protocol developed by HD Biosciences (China). Briefly, the assay is a homogeneous time resolved-fluorescence resonance energy transfer (HTRF) assay that measures production of cAMP by cells in a competitive immunoassay between native cAMP produced by cells and cAMP-labeled with XL-665. A cryptate-labeled anti-cAMP antibody visualizes the tracer. The assay was performed in accordance with instructions from manufacturer.
Test compounds were added to wells of microplates (384 format). HEK-293 cells expressing the human D1 receptor were plated at 1000 cells/well and incubated 30 min at room temperature. cAMP-d2 tracer was added to wells and followed by addition of Anti-cAMP antibody-cryptate preparation and incubated for 1 h at room temperature in dark. HTRF cAMP was measured by excitation of the donor with 337 nm laser (the “TRF light unit”) and subsequent (delay time 100 microseconds) measurement of cryptate and d2 emission at 615 nm and 665 nm over a time window of 200 microseconds with a 2000 microseconds time window between repeats/100 flashes). HRTF measurements were performed on an Envision microplate reader (PerkinElmer). The HTRF signal was calculated as the emission-ratio at 665 nm over 615 nm. The HTRF ratio readout for test compounds was normalized to 0% and 100% stimulation using control wells with DMSO-solvent or 30 uM dopamine. Test compound potency (EC50) was estimated by nonlinear regression using the sigmoidal dose-response (variable slope) using Xlfit 4 (IDBS, Guildford, Surrey, UK, model 205). y=(A+((B−A)/(1+((C/x)^D)))) where y is the normalized HTRF ratio measurement for a given concentration of test compound, x is the concentration of test compound, A is the estimated efficacy at infinite compound dilution, and B is the maximal efficacy. C is the EC50 value and D is the Hill slope coefficient. EC50 estimates were obtained from an independent experiment and the logarithmic average was calculated. Dopamine D2 Receptor Agonism
(In general: TR-FRET usually uses a lanthanide donor and a delayed reading to cut background.)

A further data set deals with human D2 receptor (Homo sapiens (Human), UniProt P14416). As to the kind of experiment: Dopamine D2 receptor agonism, calcium mobilization assay. It counts as cell-based. The following applies: normalized to 1 μM dopamine = 100%. Here is the method:
Dopamine D2 receptor agonism was measured using a calcium mobilization assay protocol developed by HD Biosciences (China). Briefly, HEK293/G15 cells expressing human D2 receptor were plated at a density of 15000 cells/well in clear-bottomed, Matrigel-coated 384-well plates and grown for 24 hrs at 37° C. in the presence of 5% CO2. The cells were incubated with calcium-sensitive fluorescent dye, Fluo8, for 60-90 minutes at 37° C. in the dark. Test compounds were prepared at 3-fold concentrated solution in 1×HBSS buffer with Ca^2+ and Mg^2+. Calcium Flux signal was immediately recorded after compounds were added from compound plate to cell plate at FLIPR (Molecular Devices). The fluorescence data were normalized to yield responses for no stimulation (buffer) and full stimulation (1 μM of dopamine) of 0% and 100% stimulation, respectively. Test compound potency (EC50) was estimated by nonlinear regression using the sigmoidal dose-response (variable slope) using Xlfit 4 (IDBS, Guildford, Surrey, UK, model 205). y=(A+((B−A)/(1+((C/x)^D)))) where y is the normalized ratio measurement for a given concentration of test compound, x is the concentration of test compound, A is the estimated efficacy at infinite compound dilution, and B is the maximal efficacy. C is the EC50 value and D is the Hill slope coefficient. EC50 estimates were obtained from independent experiment and the logarithmic average was calculated.
(Calcium assays in cells follow changes in intracellular calcium, usually with a dye or a luminescent sensor.)

In data set [2] the target is T1, human 5-HT2B receptor (Homo sapiens (Human), UniProt P41595). As to the kind of experiment: 5-HT2B agonist activity assay (IP1 production, HTRF). Format: cell-based. The following applies: read-out: 5-HT2B Emax. As for the experimental part: Evaluation of the agonist activity of compounds (I), (Ia) and (Ib) at the human 5-HT2B receptor was performed by Eurofins/Cerep (France) measuring the compound effects on inositol monophosphate (IP1) production using the HTRF detection method. Briefly, the human 5-HT2B receptor was expressed in transfected CHO cells. The cells were suspended in a buffer containing 10 mM Hepes/NaOH (pH 7.4), 4.2 mM KCl, 146 mM NaCl, 1 mM CaCl2, 0.5 mM MgCl2, 5.5 mM glucose and 50 mM LiCl, then distributed in microplates at a density of 4100 cells/well and incubated for 30 min at 37° C. in the presence of buffer (basal control), test compound or reference agonist. For stimulated control measurement, separate assay wells contained 1 μM 5-HT. Following incubation, the cells were lysed and the fluorescence acceptor (fluorophen D2-labeled IP1) and fluorescence donor (anti-IP1 antibody labeled with europium cryptate) were added. After 60 min at room temperature, the fluorescence transfer was measured at lambda(Ex) 337 nm and lambda(Em) 620 and 665 nm using a microplate reader (Rubystar, BMG). The IP1 concentration was determined by dividing the signal measured at 665 nm by that measured at 620 nm (ratio). The results were expressed as a percent of the control response to 1 μM 5-HT. The standard reference agonist was 5-HT, which was tested in each experiment at several concentrations to generate a concentration-response curve from which its EC50 value is calculated as described above for dopamine functional assays.
T1 sequence (P41595 whole entry): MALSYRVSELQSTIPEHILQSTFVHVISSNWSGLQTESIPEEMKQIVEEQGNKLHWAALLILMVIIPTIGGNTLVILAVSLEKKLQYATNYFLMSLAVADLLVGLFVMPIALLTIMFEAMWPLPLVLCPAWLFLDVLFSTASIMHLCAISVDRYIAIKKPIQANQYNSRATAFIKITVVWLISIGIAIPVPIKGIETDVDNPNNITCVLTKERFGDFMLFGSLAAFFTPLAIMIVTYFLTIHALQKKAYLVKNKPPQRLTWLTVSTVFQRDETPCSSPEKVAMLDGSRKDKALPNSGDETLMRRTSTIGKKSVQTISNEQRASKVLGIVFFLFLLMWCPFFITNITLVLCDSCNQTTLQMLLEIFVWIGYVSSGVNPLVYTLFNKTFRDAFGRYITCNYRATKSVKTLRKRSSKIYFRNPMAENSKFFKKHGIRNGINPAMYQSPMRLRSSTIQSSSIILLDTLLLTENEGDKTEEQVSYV

The conditions of data set [3]: Liu et al., Bioorganic Med. Chem. (2008); cited from earlier work.
Data set [4] addresses T1, human 5-HT2B receptor. The data set is described as follows: 5-HT2B radioligand binding assay ([125I](±)DOI). Conditions: 0.2 nM [125I](±)DOI, read-out: 5-HT2B binding affinity (% inhibition of control, specific binding at concentration indicated). Here is the method: Membrane homogenates prepared from CHO cells expressing the human 5HT2B receptor were incubated for 60 min at room temperature with 0.2 nM [125I](±)DOI (1-(4-iodo-2, 5-dimethoxyphenyl)propan-2-amine) in the absence or presence of the test compound in a buffer containing 50 mM Tris-HCl (pH 7.4), 5 mM MgCl2, 10 μM pargyline and 0.1% ascorbic acid. Nonspecific binding is determined in the presence of 1 μM (±)DOI. Following incubation, the samples were filtered rapidly under vacuum through glass fiber filters (GF/B, Packard) presoaked with 0.3% polyethyleneimine (PEI) and rinsed several times with ice-cold 50 mM Tris-HCl using a 96-sample cell harvester (Unifilter, Packard). The filters were dried and counted for radioactivity in a scintillation counter (Topcount, Packard) using a scintillation cocktail (Microscint 0, Packard). The results are expressed as a percent inhibition of the control radioligand specific binding. The standard reference compound was (±)DOI, which was tested in each experiment at several concentrations to obtain a competition curve from which its IC50 is calculated.

The nature of data set [5]: PK experiments in rats: plasma compound (I) after oral dosing of prodrugs. The following applies: Wistar rats, FIG. 2, doses equal to 287 μg/kg of compound (I). It counts as in vivo, Han Wistar rats. Here is the method:
as §1
Mobile phase B: Acetonitrile. […] Flow rate 0.5 mL/min.
The rats had unrestricted access to the diet.
Mobile phase B: Acetonitrile+0.2% formic acid. […] Flow rate 0.3 mL/min.
Han Wistar rats were supplied by Envigo, UK. […] The rats received a standard laboratory diet Teklad 2014C. The rats had unrestricted access to the diet.

A further data set deals with hepatocytes from rat. As to the kind of experiment: Conversion to compound (I) in rat hepatocytes. Format: in vitro ADME. Conditions: 1 μg/mL, 37° C., 0.25-60 minutes, FIG. 7a. As for the experimental part: (§2) The cell concentration at incubation was 1×10^6 viable cells/mL. The incubations were performed in glass tubes at 37° C. with a total incubation volume of 3.5 mL and with duplicate incubations for each test item. The 3.5 mL of hepatocyte suspension was equilibrated for 10 minutes in a water bath set to 37° C. where after the incubations were initiated by adding 3.5 μL of a stock solution of the test item in DMSO (Dimethyl sulfoxide) and gently inverting the tubes. The final solvent concentration in the incubations was 0.1% DMSO. Samples of 600 μL were withdrawn from the incubations at the pre-determined time points of 0.25, 5, 15, 30 and 60 minutes after ensuring homogeneity of hepatocyte suspensions. The withdrawn volume was added to 1 mL Nunc cryo tubes on wet ice containing 60 μL of ice cold ascorbic acid (100 mg/mL) and 30 μL of ice cold 100 mM saccharic acid 1.4-lactone in 0.5 M citric acid. The tubes were mixed and 35 μL of a solution of ice cold 20% formic acid was added. The tubes were mixed thoroughly and stored at −80° C. awaiting analysis. Analysis method and Instrumentation used for analysis of (I) from dosing (Id-ia), (Id-ib), (Id-iia) and (Id-iib), were the one described in Examples 4 and 5 below in the section “Instrumentation used for analysis of compound (I) from dosing of compounds (Ic), (Id-ia), (Id-ib), (Id-iia), (Id-iib), (Id-iab) and (Id-iiab).”
(§3) Analysis method and Instrumentation used for analysis of (I) from dosing (Id-iab) and (Id-iiab) consisted of mixing equal aliquots of the samples and precipitation solution (acetonitrile (MeCN) with 10% methanol (MeOH) and 1% formic acid), followed by centrifugation at 4° C. at 16000 g for 10 minutes. Supernatants were collected and analysed by LC-MS/MS. Mass spectrometer: Waters Acquity—Waters Xevo TQ-MS. Analytical column: Acquity UPLC HSS T3, 100×2.1 mm, 1.8 μm. Mobile phase A: 0.2% formic acid in water. Mobile phase B: 0.2% formic acid in acetonitrile. Gradient run from 95/5% to 60/40 in 5 min. Flow rate 0.3 mL/min. MRM monitoring of (I) in the study samples and in the analytical standards.

The test system of another data set is hepatocytes from human. As to the kind of experiment: Conversion to compound (I) in human hepatocytes. Format: in vitro ADME. The following applies: 1 μg/mL, 37° C., 0.25-60 minutes, FIG. 7b. As for the experimental part:
as §2, §3

The nature of data set [6]: Conversion to compound (I) in fresh rat blood. Format: in vitro ADME. The following applies: fresh blood 37° C., 1 μg/mL, 0-60 minutes, FIG. 8a. As for the experimental part: (§4) Conversion of (Id-ia), (Id-ib), (Id-iia) and (Id-iib) in human blood (average of 3 donors) and rat blood (average of 45 donors) to (I) was shown in fresh blood at 37° C. spiked with 1 μg/mL of (Id-ia), (Id-ib), (Id-iia) and (Id-iib) separately, (I) was measured at 0, 5, 15, 30 and 60 minutes in isolated plasma. Analysis method and Instrumentation as described in Examples 4 and 5 below in the section “Instrumentation used for analysis of compound (I) from dosing of compounds (Ic), (Id-ia), (Id-ib), (Id-iia), (Id-iib), (Id-iab) and (Id-iiab).”

A short description of data set [7]: Conversion to compound (I) in fresh human blood. The following applies: fresh blood 37° C., 1 μg/mL, 0-60 minutes, FIG. 8b. Format: in vitro ADME. Here is the method:
as §4

Chain of human D2 receptor (P14416 whole entry): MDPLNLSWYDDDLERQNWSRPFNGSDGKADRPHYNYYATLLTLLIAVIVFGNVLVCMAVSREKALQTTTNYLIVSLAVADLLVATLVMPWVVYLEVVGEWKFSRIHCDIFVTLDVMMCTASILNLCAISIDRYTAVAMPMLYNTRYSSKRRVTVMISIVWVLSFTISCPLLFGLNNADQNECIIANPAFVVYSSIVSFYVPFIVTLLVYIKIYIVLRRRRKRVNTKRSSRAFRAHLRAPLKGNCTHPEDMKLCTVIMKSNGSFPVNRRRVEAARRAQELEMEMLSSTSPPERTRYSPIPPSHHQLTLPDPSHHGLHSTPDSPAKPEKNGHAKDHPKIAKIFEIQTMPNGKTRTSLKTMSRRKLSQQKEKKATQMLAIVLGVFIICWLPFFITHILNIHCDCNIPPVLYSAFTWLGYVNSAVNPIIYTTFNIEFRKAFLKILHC
Chain of human D1 receptor (P21728 whole entry): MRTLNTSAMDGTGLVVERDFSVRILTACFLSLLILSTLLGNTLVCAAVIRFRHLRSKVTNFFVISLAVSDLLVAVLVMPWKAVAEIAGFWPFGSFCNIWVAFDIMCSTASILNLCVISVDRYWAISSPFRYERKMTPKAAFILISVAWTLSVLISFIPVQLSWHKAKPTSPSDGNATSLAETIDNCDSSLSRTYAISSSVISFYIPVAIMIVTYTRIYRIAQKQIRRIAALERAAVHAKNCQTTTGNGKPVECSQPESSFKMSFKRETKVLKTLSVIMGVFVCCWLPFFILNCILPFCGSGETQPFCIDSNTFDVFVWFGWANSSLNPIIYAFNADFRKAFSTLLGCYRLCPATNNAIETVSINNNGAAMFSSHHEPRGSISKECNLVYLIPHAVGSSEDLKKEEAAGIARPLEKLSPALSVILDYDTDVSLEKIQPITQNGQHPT

For `CN1CCc2cccc3c2[C@H]1Cc1ccc(O[C@@H]2O[C@H](C(=O)O)[C@@H](O)[C@H](O)[C@H]2O)c(O)c1-3` [(2S,3S,4S,5R,6S)-6-[[(6aR)-11-hydroxy-6-methyl-5,6,6a,7-tetrahydro-4H-dibenzo[de,g]quinolin-10-yl]oxy]-3,4,5-trihydroxy-tetrahydropyran-2-carboxylic acid], the “apomorphine in plasma at one time point” value in [1] stood at 916 pg/mL.
As to `CCCN1CCC[C@@H]2Cc3c(ccc(O)c3O)C[C@H]21` [(I), (4aR,10aR)-1-n-Propyl-1,2,3,4,4a,5,10,10a-octahydro-benzo[g]quinoline-6,7-diol, reference compound], the Emax on human D1 receptor turned out to be 99%; at human D2 receptor it was 91%; at human 5-HT2B receptor [2], 50%. In data set [3], the “oral bioavailability (in words)” value is given as “low oral bioavailability”.
In the case of `CCCN1CCC[C@@H]2Cc3c(ccc(O[C@@H]4O[C@H](C(=O)O)[C@@H](O)[C@H](O)[C@H]4O)c3O[C@@H]3O[C@H](C(=O)O)[C@@H](O)[C@H](O)[C@H]3O)C[C@H]21` [(Id-iab), (2S,2′S,3S,3′S,4S,4′S,5R,5′R,6S,6′S)-6,6′-(((4aR,10aR)-1-propyl-1,2,3,4,4a,5,10,10a-octahydrobenzo[g]quinoline-6,7-diyl)bis(oxy))bis(3,4,5-trihydroxytetrahydro-2H-pyran-2-carboxylic acid)], the inhibition at 10 µM on human 5-HT2B receptor [4] turned out to be 17%. Moreover, the “plasma profile of compound (I) after oral dosing (in words)” value in [5] is on record as “slower absorption rate avoiding rapid peak concentrations accompanied by a sustained exposure of compound (I) in plasma”. For the same molecule, the “conversion to compound (I) in rat hepatocytes” value with hepatocytes from rat is listed as “time dependent conversion to compound (I)”. For the same molecule, in the data set on hepatocytes from human, the “conversion to compound (I) in human hepatocytes” value is recorded as “time dependent conversion to compound (I)”.
In the case of `CCCN1CCC[C@@H]2Cc3c(ccc(OS(=O)(=O)O)c3O)C[C@H]21` [(Id-iib), (4aR,10aR)-6-hydroxy-1-propyl-1,2,3,4,4a,5,10,10a-octahydrobenzo[g]quinolin-7-yl hydrogen sulfate], the “plasma profile of compound (I) after oral dosing (in words)” value in data set [5] is given as “slower absorption rate avoiding rapid peak concentrations accompanied by a sustained exposure of compound (I) in plasma”. Further, the “conversion to compound (I) in rat hepatocytes” value in the data set with hepatocytes from rat is given as “time dependent conversion to compound (I)”. For the same molecule, the “conversion to compound (I) in human hepatocytes” value in the data set on hepatocytes from human is on record as “time dependent conversion to compound (I)”. For the same molecule, the “conversion to compound (I) in rat blood” value in data set [6] is on record as “time dependent conversion to compound (I)”. Moreover, the “conversion to compound (I) in human blood” value in data set [7] is given as “time dependent conversion to compound (I)”.

For orientation: Emax means the maximal effect, on the per cent scale that the assay sets.

The values above are taken from patent publication US10729710B2, “Catecholamine prodrugs for use in the treatment of Parkinson's disease” (H. Lundbeck A/S, priority 2017, dated 2020).
